Experimental data from PubChem BioAssay AID1918930 (Molecular Pharmacology Branch, DTP, NCI, 2023).

Test system: 233499-124-R-J3-PDC complex spheroid viability, % test/control
Experiment: Anticancer human tumor 233499-124-R-J3-PDC patient-derived colon adenocarcinoma cell line growth inhibition
Settings: for IC50: curve of first compound; for viability, T/C: stronger effect = lower value; active = viability on the fitted dose curve at most 10% of control; inactive = the rest
Method in brief: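 Multicellular complex spheroids of tumor cells with human endothelial cells (HUVEC) and mesenchymal stem cells; the LSD1 inhibitor iadademstat was combined with standard-of-care or investigational agents. Top concentration at or near clinical Cmax, half-log dilutions; final DMSO ≤0.25%.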

[1] = second compound 0.1 µM, first compound 0.0316 µM
[2] = second compound 0.1 µM, first compound 0.1 µM
[3] = second compound 0.1 µM, first compound 0.316 µM
[4] = second compound 0.1 µM, first compound 1 µM
[5] = second compound 0.1 µM, first compound 3.16 µM
[6] = second compound 0.1 µM, first compound 10 µM
[7] = second compound 0.316 µM, first compound 0.0316 µM
[8] = second compound 0.316 µM, first compound 0.1 µM
[9] = second compound 0.316 µM, first compound 0.316 µM
[10] = second compound 0.316 µM, first compound 1 µM
[11] = second compound 0.316 µM, first compound 3.16 µM
[12] = second compound 0.316 µM, first compound 10 µM
[13] = second compound 1 µM, first compound 0.0316 µM
[14] = second compound 1 µM, first compound 0.1 µM
[15] = second compound 1 µM, first compound 0.316 µM
[16] = second compound 1 µM, first compound 1 µM
[17] = second compound 1 µM, first compound 3.16 µM
[18] = second compound 1 µM, first compound 10 µM
[19] = second compound 3.16 µM, first compound 0.0316 µM
[20] = second compound 3.16 µM, first compound 0.1 µM
[21] = second compound 3.16 µM, first compound 0.316 µM
[22] = second compound 3.16 µM, first compound 1 µM
[23] = second compound 3.16 µM, first compound 3.16 µM
[24] = second compound 3.16 µM, first compound 10 µM
[25] = second compound 10 µM, first compound 0.0316 µM
[26] = second compound 10 µM, first compound 0.1 µM
[27] = second compound 10 µM, first compound 0.316 µM
[28] = second compound 10 µM, first compound 1 µM
[29] = second compound 10 µM, first compound 3.16 µM
[30] = second compound 10 µM, first compound 10 µM
[31] = second compound 0.1 µM, first compound 0.00316 µM
[32] = second compound 0.1 µM, first compound 0.01 µM
[33] = second compound 0.316 µM, first compound 0.00316 µM
[34] = second compound 0.316 µM, first compound 0.01 µM
[35] = second compound 1 µM, first compound 0.00316 µM
[36] = second compound 1 µM, first compound 0.01 µM
[37] = second compound 3.16 µM, first compound 0.00316 µM
[38] = second compound 3.16 µM, first compound 0.01 µM
[39] = second compound 10 µM, first compound 0.00316 µM
[40] = second compound 10 µM, first compound 0.01 µM
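Note: spheroids exposed to agents for one week before readout.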

CC(C)c1c(-c2ccccc2)nc2c(C#N)c[nH]n2c1=O + NC1CC1c1ccc(-c2cccc(O)c2)cc1
inactive: viability, T/C [1] 108% | viability, T/C [2] 117% | viability, T/C [3] 110% | viability, T/C [4] 100% | viability, T/C [5] 108% | viability, T/C [6] 104% | viability, T/C [7] 100% | viability, T/C [8] 110% | viability, T/C [9] 109% | viability, T/C [10] 118% | viability, T/C [11] 117% | viability, T/C [12] 110% | viability, T/C [13] 86.8% | viability, T/C [14] 93.6% | viability, T/C [15] 95.1% | viability, T/C [16] 92.8% | viability, T/C [17] 105% | viability, T/C [18] 116% | viability, T/C [19] 87.6% | viability, T/C [20] 93.5% | viability, T/C [21] 97.3% | viability, T/C [22] 98.9% | viability, T/C [23] 114% | viability, T/C [24] 109% | viability, T/C [25] 76.1% | viability, T/C [26] 78% | viability, T/C [27] 93.3% | viability, T/C [28] 101% | viability, T/C [29] 109% | viability, T/C [30] 114%
> 10000 nM: IC50 (second compound 0.1 µM) | IC50 (second compound 0.316 µM) | IC50 (second compound 1 µM) | IC50 (second compound 3.16 µM) | IC50 (second compound 10 µM)

CC1COCCN1c1cc(-c2ccnn2C)c2ccnc(-c3ccn[nH]3)c2n1 (stereo not given) + NC1CC1c1ccc(-c2cccc(O)c2)cc1
> 1000 nM: IC50 (second compound 0.1 µM) | IC50 (second compound 0.316 µM) | IC50 (second compound 1 µM)
< 3.16 nM: IC50 (second compound 3.16 µM) | IC50 (second compound 10 µM)
inactive: viability, T/C [31] 60.7% | viability, T/C [32] 63.2% | viability, T/C [1] 36.7% | viability, T/C [2] 39.4% | viability, T/C [3] 56.4% | viability, T/C [4] 102% | viability, T/C [33] 62.7% | viability, T/C [34] 75.6% | viability, T/C [7] 38.9% | viability, T/C [8] 36.6% | viability, T/C [9] 43.7% | viability, T/C [10] 87.3% | viability, T/C [35] 64.1% | viability, T/C [36] 59.6% | viability, T/C [13] 37.4% | viability, T/C [14] 40.1% | viability, T/C [15] 39.1% | viability, T/C [16] 81.8% | viability, T/C [37] 60.5% | viability, T/C [38] 50.9% | viability, T/C [19] 39.5% | viability, T/C [20] 42.7% | viability, T/C [21] 44.2% | viability, T/C [22] 82.1% | viability, T/C [39] 53.4% | viability, T/C [40] 42.1% | viability, T/C [25] 32.7% | viability, T/C [26] 36.2% | viability, T/C [27] 32.9% | viability, T/C [28] 76.5%

COc1ccc([C@@H](O)c2cc(-c3ncnc4cc(N5CCOCC5)ccc34)c(F)cc2Cl)nn1 + NC1CC1c1ccc(-c2cccc(O)c2)cc1
6670 nM: IC50 (second compound 0.316 µM)
inactive: viability, T/C [1] 97.3% | viability, T/C [2] 93.4% | viability, T/C [3] 95.7% | viability, T/C [4] 71.5% | viability, T/C [5] 63% | viability, T/C [6] 36.3% | viability, T/C [7] 93.3% | viability, T/C [8] 98.3% | viability, T/C [9] 95.5% | viability, T/C [10] 78.6% | viability, T/C [11] 78.5% | viability, T/C [12] 36.1% | viability, T/C [13] 91.4% | viability, T/C [14] 80.4% | viability, T/C [15] 79.1% | viability, T/C [16] 62% | viability, T/C [17] 63.1% | viability, T/C [18] 40.1% | viability, T/C [19] 92.1% | viability, T/C [20] 95.8% | viability, T/C [21] 75.9% | viability, T/C [22] 67.3% | viability, T/C [23] 57.7% | viability, T/C [24] 26.9% | viability, T/C [25] 69.5% | viability, T/C [26] 80.2% | viability, T/C [27] 57.7% | viability, T/C [28] 49.7% | viability, T/C [29] 51.2% | viability, T/C [30] 21.5%
1710 nM: IC50 (second compound 10 µM)
5190 nM: IC50 (second compound 0.1 µM)
3620 nM: IC50 (second compound 3.16 µM)
5490 nM: IC50 (second compound 1 µM)

O=C(C=Cn1cnc(-c2cc(C(F)(F)F)cc(C(F)(F)F)c2)n1)NNc1cnccn1 + NC1CC1c1ccc(-c2cccc(O)c2)cc1
821 nM: IC50 (second compound 0.1 µM)
557 nM: IC50 (second compound 10 µM)
inactive: viability, T/C [31] 102% | viability, T/C [32] 83.9% | viability, T/C [1] 95.7% | viability, T/C [2] 101% | viability, T/C [3] 77.6% | viability, T/C [4] 44.3% | viability, T/C [33] 91.8% | viability, T/C [34] 104% | viability, T/C [7] 97.2% | viability, T/C [8] 81.2% | viability, T/C [9] 73.5% | viability, T/C [10] 38.2% | viability, T/C [35] 67.3% | viability, T/C [36] 78.9% | viability, T/C [13] 90.9% | viability, T/C [14] 101% | viability, T/C [15] 67.3% | viability, T/C [16] 46% | viability, T/C [37] 84.1% | viability, T/C [38] 102% | viability, T/C [19] 83.5% | viability, T/C [20] 94.3% | viability, T/C [21] 72.5% | viability, T/C [22] 48.2% | viability, T/C [39] 73.5% | viability, T/C [40] 83.1% | viability, T/C [25] 78.2% | viability, T/C [26] 81.9% | viability, T/C [27] 61.7% | viability, T/C [28] 38%
805 nM: IC50 (second compound 1 µM)
669 nM: IC50 (second compound 0.316 µM)
920 nM: IC50 (second compound 3.16 µM)

COc1cc(C2c3cc4c(cc3C(OC3OC5COC(C)OC5C(O)C3O)C3COC(=O)C23)OCO4)cc(OC)c1O (stereo not given) + NC1CCC(NC2CC2c2ccccc2)CC1
1290 nM: IC50 (second compound 10 µM)
> 3000 nM: IC50 (second compound 0.1 µM) | IC50 (second compound 0.316 µM) | IC50 (second compound 1 µM) | IC50 (second compound 3.16 µM)
inactive: viability, T/C (second compound 0.1 µM, first compound 0.00949 µM) 96.6% | viability, T/C (second compound 0.1 µM, first compound 0.03 µM) 102% | viability, T/C (second compound 0.1 µM, first compound 0.0949 µM) 80.8% | viability, T/C (second compound 0.1 µM, first compound 0.3 µM) 88.8% | viability, T/C (second compound 0.1 µM, first compound 0.949 µM) 81% | viability, T/C (second compound 0.1 µM, first compound 3 µM) 75.5% | viability, T/C (second compound 0.316 µM, first compound 0.00949 µM) 119% | viability, T/C (second compound 0.316 µM, first compound 0.03 µM) 115% | viability, T/C (second compound 0.316 µM, first compound 0.0949 µM) 89% | viability, T/C (second compound 0.316 µM, first compound 0.3 µM) 95% | viability, T/C (second compound 0.316 µM, first compound 0.949 µM) 89.9% | viability, T/C (second compound 0.316 µM, first compound 3 µM) 73.4% | viability, T/C (second compound 1 µM, first compound 0.00949 µM) 97.1% | viability, T/C (second compound 1 µM, first compound 0.03 µM) 81.3% | viability, T/C (second compound 1 µM, first compound 0.0949 µM) 80.1% | viability, T/C (second compound 1 µM, first compound 0.3 µM) 77.3% | viability, T/C (second compound 1 µM, first compound 0.949 µM) 65.7% | viability, T/C (second compound 1 µM, first compound 3 µM) 92.2% | viability, T/C (second compound 3.16 µM, first compound 0.00949 µM) 91.5% | viability, T/C (second compound 3.16 µM, first compound 0.03 µM) 83.7% | viability, T/C (second compound 3.16 µM, first compound 0.0949 µM) 81.4% | viability, T/C (second compound 3.16 µM, first compound 0.3 µM) 65.9% | viability, T/C (second compound 3.16 µM, first compound 0.949 µM) 82% | viability, T/C (second compound 3.16 µM, first compound 3 µM) 57.6% | viability, T/C (second compound 10 µM, first compound 0.00949 µM) 97.1% | viability, T/C (second compound 10 µM, first compound 0.03 µM) 77.6% | viability, T/C (second compound 10 µM, first compound 0.0949 µM) 74.7% | viability, T/C (second compound 10 µM, first compound 0.3 µM) 60.5% | viability, T/C (second compound 10 µM, first compound 0.949 µM) 63.7% | viability, T/C (second compound 10 µM, first compound 3 µM) 36.4%

Nc1ncn(C2CC(O)C(CO)O2)c(=O)n1 (stereo not given) + NC1CCC(NC2CC2c2ccccc2)CC1
inactive: viability, T/C [31] 77.1% | viability, T/C [32] 83.9% | viability, T/C [1] 83.8% | viability, T/C [2] 69% | viability, T/C [3] 110% | viability, T/C [4] 111% | viability, T/C [33] 92.6% | viability, T/C [34] 96.8% | viability, T/C [7] 87.2% | viability, T/C [8] 86.8% | viability, T/C [9] 98.8% | viability, T/C [10] 77.6% | viability, T/C [35] 89.3% | viability, T/C [36] 75.2% | viability, T/C [13] 74.8% | viability, T/C [14] 72.5% | viability, T/C [15] 85.1% | viability, T/C [16] 94.8% | viability, T/C [37] 82.9% | viability, T/C [38] 72.2% | viability, T/C [19] 73.6% | viability, T/C [20] 82.6% | viability, T/C [21] 55.8% | viability, T/C [22] 101% | viability, T/C [39] 74.2% | viability, T/C [40] 71.2% | viability, T/C [25] 68.7% | viability, T/C [26] 65.8% | viability, T/C [27] 73.1% | viability, T/C [28] 82.1%
> 1000 nM: IC50 (second compound 0.1 µM) | IC50 (second compound 0.316 µM) | IC50 (second compound 1 µM) | IC50 (second compound 3.16 µM) | IC50 (second compound 10 µM)
